Experimental findings from patent US20100298166A1, “CELL POPULATIONS FOR POLYPEPTIDE ANALYSIS AND USES OF SAME” (priority 2008, published 2010) are described below.

Common to all, as to format: cell-based, human
The subject of assay [1] is YFP tagged proteins in H1299 cells. Nature of the assay: Temporal profiles of total fluorescence and cell-cell variability of YFP tagged proteins in response to drug. As to the method:
(§1) Long period time-lapse microscopy: Time-lapse movies were obtained (at 20× magnification) as described by Sigal et al. (Sigal, Milo et al. 2006, supra) with an automated, incubated (including humidity and CO2 control) Leica DMIRE2 inverted fluorescence microscope and an ORCA ER cooled CCD camera (Hamamatsu Photonics). The system was controlled by ImagePro5 Plus (Media Cybernetics) software which integrated time-lapse acquisition, stage movement, and software based auto-focus. During the experiment, cells were grown and visualized in 12-well coverslip bottom plates (MatTek) coated with […] fibronectin (Sigma). For each well time lapse movies were obtained at four fields of view. Each movie was taken at a time resolution of 20 minutes and was filmed for at least three days (over 200 time points). Each time point included three images—phase contrast, red and yellow fluorescence.
Image analysis of time lapse movies: A custom written image analysis tool was used developed using the Matlab image processing toolbox environment (Mathworks, Natick, Mass.). The main steps include; image correction, segmentation, tracking of the cells and automated identification of cell phenotypes (mitosis and cell death). Image background correction (flat field correction and background subtraction) was carried out as previously described (Sigal, Milo et al. 2006, supra). No significant bleaching was observed (on average less than 3% over the duration of the experiment). […] The main steps of the segmentation process are: 1) Differentiation between cells and background by global image threshold using Otsu's method (Otsu 1979, IEEE Transactions on Systems, Man, and Cybernetics 9(1): 62-66); 2) Segmentation of neighboring cells by applying the seeded watershed segmentation algorithm. […]
Protein dynamics clustering: The five average population dynamics profiles depicted in FIG. 8B were generated in the following manner: The levels of each protein were smoothed using a median filter and linearly scaled between −1 and 1. The distance between every pair of proteins was measured in terms of Pearson correlation and clustering was performed using a k-means algorithm (reproducibility of results using different seeds is >99%). […]

Assay [2] deals with thyredoxin and thyredoxin reductase. Description: Nuclear/cytoplasmic localization changes of tagged proteins following drug addition. As to the method:
as §1
Image analysis of time lapse movies: A custom written image analysis tool was used developed using the Matlab image processing toolbox environment (Mathworks, Natick, Mass.). […]
Nuclear localization changes following drug addition: The localization of each protein across the experiment was analyzed and the ratio of cytoplasmic to nuclear fluorescence was followed as a function of time. […] Both rapid and slow localization changes between the cytoplasm and the nucleus were detected (FIGS. 14A-C).

In assay [3] the test system is TOP1. Nature of the assay: Immunoblots with anti-TOP1 and anti-GFP after CPT. How it is done:
Immunoblots against 20 selected proteins: Total cell lysates were prepared with RIPA buffer (Pierce) according to manufacturer's instructions. The protein concentrations were determined by BCA protein assay kit (Thermo scientific). Equal amounts of proteins were resolved on SDS-PAGE and subjected to immunoblotting analysis by using the antibodies listed below. The intensity of protein bands was quantified by using ImageJ software.
Anti-Myosin IIA (M8064) and anti-GFP (11814460001) antibodies were from Sigma and Roche, respectively.
On the technique in general: A western blot detects proteins with antibodies after separation by electrophoresis.

Assay [4] relates to H1299 non-small cell lung carcinoma cell line. Nature of the assay: Time-lapse microscopy of cell death, motility and growth arrest after drug addition. The conditions noted are these: CPT 10 uM. As to the method: as §1
Drug Materials: Camptothecin (CPT; C9911 Sigma), was dissolved in DMSO (hybri-max, D2650 Sigma) to achieve a stock solution of 10 mM. In each experiment, drug was diluted to 10 μM in a transparent growth medium (RPMI, X PenStrep, 10% FCS, w/o riboflavin, w/o phenol red, Bet Haemek). Growth medium (2 ml) was replaced by the diluted drug (2 ml) under the microscope. […]

Assay [5] has as its system TOP1. The conditions noted are these: for effects on TOP1 (nucleolar exit, degradation, cytoplasmic accumulation): other DNA damaging drugs. As to the method: as §1
(§2) Drug Materials: Camptothecin (CPT; C9911 Sigma), was dissolved in DMSO (hybri-max, D2650 Sigma) to achieve a stock solution of 10 mM. In each experiment, drug was diluted to 10 μM in a transparent growth medium (RPMI, X PenStrep, 10% FCS, w/o riboflavin, w/o phenol red, Bet Haemek). Growth medium (2 ml) was replaced by the diluted drug (2 ml) under the microscope. The same procedure was carried out for the following drugs: Etoposide (E1383 Sigma), diluted to 33.3 μM and for Cisplatinum (P4394 Sigma) diluted to 40 μM. The stock solution for ActD (A1410 Sigma) was 1 mg/ml and was diluted to 1 μg/ml.
Image analysis of time lapse movies: A custom written image analysis tool was used developed using the Matlab image processing toolbox environment (Mathworks, Natick, Mass.). The main steps include; image correction, segmentation, tracking of the cells and automated identification of cell phenotypes (mitosis and cell death). Image background correction (flat field correction and background subtraction) was carried out as previously described (Sigal, Milo et al. 2006, supra). […] The main steps of the segmentation process are: 1) Differentiation between cells and background by global image threshold using Otsu's method (Otsu 1979, IEEE Transactions on Systems, Man, and Cybernetics 9(1): 62-66); 2) Segmentation of neighboring cells by applying the seeded watershed segmentation algorithm. Seeds were obtained by smoothening the red intensity image and usage of bright nuclei as cell seeds (by identifying local maxima)—one seed per cell; 3) Nuclei segmentation following cell segmentation; each cell was independently stretched between zero and one and a fixed threshold was used to differentiate between the cytoplasm and the nuclei; 4) Tracking of cells was performed by analyzing the movie from end to start and linking each segmented cell to the cell in the previous image with the closest centroid; 5) The automated cell death identification algorithm utilizes the morphological changes correlated with dying cells: rounding followed by blebbing and an explosion of the outer membrane or its collapse. An artificial neural network (ANN) algorithm was constructed that could identify each one of these morphological patters similar to the method previously described in (Eden 2005, IEEE, Transactions on Medical Imaging 24: 1011-1024). Briefly, two sets of images were constructed: The first contained 400 cell images in different stages of cell death and the second contained 400 live cell images. For each image, a collection of high-level image features was computed. […] This process transforms each image into a multi dimensional vector of features.

A further assay relates to nucleolar proteins. Description: Quantitation of nucleolar translocations of tagged proteins. The conditions noted are these: 1 μg/ml. As to the method: as §2
Then, for each of the selected clones, the present inventors calculated the ratio of fluorescence intensity between the top and bottom ten percent pixels in individual nuclei and averaged over the population. Clones with a max/min change of over 20 percent in this average during the experiment were inspected manually to verify the source of change in pixel intensity distribution and were classified as clones showing nucleolar translocation.
Finally, to quantify the extent and direction (nucleoli to nucleoplasm or vise versa) of the translocation, the present inventors calculated the ratio between mean fluorescence intensity of nucleoli vs. nucleoplasm (Rncll/nuc) at the two time points were the max/min ratio was maximized and minimized. […]

A further assay has as its system DDX5. Nature of the assay: Bimodal behavior of tagged DDX5 in individual cells in response to drugs. The conditions noted are these: Etoposide 33.3 μM, Cis-platinum 40 μM. How it is done:
as §2
Determination of ‘bimodal’ behaviors: The coefficient of variance (CV defined as the ration between the std between cells and the mean) was measured for 400 proteins for 47 hours following addition of CPT (at a 20 minute resolution) (see FIGS. 13A-B). All CVs were normalized to average 1 (CV(i,j)/mean(mean(CV)) where i is protein number (i=1 . . . 400) and j is timepoint (j=1 . . . 141)). All proteins deviating 3 standard deviations from the average normalized CV were considered as ‘bimodal’ candidates (N=59). Following manual inspection, 30 of these proteins listed in Table 4 were denoted as bimodal.

Where two headings read alike, the source gives them in different places. Numbered stars: 1 amine (or outer) side, 2 acyl side, 3 side chain; on linkers, the order of the positions; unused ones are H or OH. Bridge positions count the residues as written; N and C are the ends. Square brackets hold non-standard residues; d marks the D form. Peptide text beside a SMILES is read from it. I, II: the chains in the order shown. Actinocin(9to1) = Cc1c2oc3c(C)ccc(C(=O)[*:1])c3nc-2c(C(=O)[*:2])c(N)c1=O; NMeV = CN[C@H](C(=O)O)C(C)C; Sar = CNCC(=O)O Bounds are passed on as bounds.

For `CC[C@@]1(O)C(=O)OCc2c1cc1n(c2=O)Cc2cc3ccccc3nc2-1` [CPT, Camptothecin], in assay [1] (CPT 10 uM), the “largest changes in fluorescence” value is “about five” and the “median dynamic range of response, change in fluorescence” value amounted to 1.3 fold. Also, the “proteins showing a decrease in intensity in response to the drug” value in assay [1] (CPT 10 uM, 48 hours tracking) is given as “about 70%”. Further, in assay [1] (std between cells divided by mean), the “increase of cell-cell variability (noise) following drug addition, on average” value worked out at 30%. Further, the “time to increase in nuclear/cytoplasmic ratio of thyredoxin and thyredoxin reductase” value in assay [2] (after drug addition) is at most 8 h. Also, in assay [2] (all tagged proteins, after CPT addition), the “proteins showing significant change in nuclear localization (>20% change in cytoplasm/nuclear fluorescence ratio)” value is “about 1%”. Moreover, in the assay with TOP1 [3], the “time within which most TOP1 is degraded” value was at most 4 h. Moreover, in assay [4], the “time to loss of motility and growth arrest after drug addition” value is on record as “about 10 hours”. In addition, the “cells showing cell rounding and blebbing (morphological correlates of cell death)” value in assay [4] (after 36 hours) was “about 15%”. The “timescale of decrease of total cellular fluorescence of tagged TOP1” value in the assay on TOP1 [5] (CPT) is reported as “under an hour”. The “nuclear exit of tagged TOP1” value in the assay on TOP1 [5] (etoposide at equivalently lethal dose, CPT at several doses) is given as “exits from the nucleus to the cytoplasm in a CPT dose dependent manner”. The “timescale of fluorescence accumulation in the cytoplasm in the TOP1 tagged clone” value in the assay on TOP1 [5] (following CPT addition) is around 5 h. In the assay with TOP1 [5] (tagged TOP1, individual cells), the “time for TOP1 levels in the nucleoli to drop after drug addition” value is “less than 2 minutes”.
For `Cc1c2oc3c(C)ccc(C(=O)N[C@@H]4C(=O)N[C@H](C(C)C)C(=O)N5CCC[C@H]5C(=O)N(C)CC(=O)N(C)[C@@H](C(C)C)C(=O)O[C@@H]4C)c3nc-2c(C(=O)N[C@@H]2C(=O)N[C@H](C(C)C)C(=O)N3CCC[C@H]3C(=O)N(C)CC(=O)N(C)[C@@H](C(C)C)C(=O)O[C@@H]2C)c(N)c1=O` [actinomycinD, actinomycin-D] (I: T[dV]P[Sar][NMeV] / II: T[dV]P[Sar][NMeV]; ester I:1-I:C, II:1-II:C; linker I:N-II:N via Actinocin(9to1)), the “proteins with nucleolar dynamics similar to those seen with CPT” value in the assay with nucleolar proteins was 4 out of 5.
As to `N.N.[Cl][Pt][Cl]` [cisplatin, Cisplatinum], the “effects on TOP1 (nucleolar exit, degradation, cytoplasmic accumulation)” value with TOP1 [5] was “did not show any of these effects on TOP1”. For the same compound, the “bimodal behavior of tagged DDX5” value in the assay with DDX5 is “did not show bimodal behavior”.
Turning to `COc1cc([C@@H]2c3cc4c(cc3[C@@H](O[C@@H]3O[C@@H]5CO[C@@H](C)O[C@H]5[C@H](O)[C@H]3O)[C@H]3COC(=O)[C@H]23)OCO4)cc(OC)c1O` [etoposide, Etoposide], in the assay on TOP1 [5], the “nuclear exit of tagged TOP1” value is recorded as “does not occur” and the “effects on TOP1 (nucleolar exit, degradation, cytoplasmic accumulation)” value was “did not show any of these effects on TOP1”. In addition, the “bimodal behavior of tagged DDX5” value in the assay with DDX5 is listed as “did not show bimodal behavior”.
